The assay can be described thus: Anti-oxidative activity of phenol compound (H2O2 scavenging). The settings on record: substance/H2O2=1, reacted with H2O2 before H2O2 was measured; versus unreacted H2O2 control; FIG. 1. The protocol: H2O2 was the tested ROS in testing anti-oxidative activity of HPPDA. There are 3 sets in this experiment, including H2O2, HPPDA/H2O2 and ascorbic acid/H2O2, where HPPDA/H2O2=1, ascorbic acid/H2O2=1, and HPPDA, ascorbic were respectively reacted with H2O2 before H2O2 was measured. The control is represented with H2O2 without undergoing any reaction.
Referring to FIG. 1, as the comparison result with control has shown, the concentration of H2O2 was lowered after reacted with ascorbic acid and HPPDA (# for significant difference, p<0.01). Particularly, H2O2 concentration was lowered by ascorbic acid with 30 μM and lowered by HPPDA with 40 μM; this means better H2O2 absorption by HPPDA than ascorbic acid.

These results are taken from US8426623B2, “Surface modified nanoparticle and preparation method thereof” (National Tsing Hua University, priority 2010, dated 2013).

For `O=C(O)/C=C/C=C/c1ccc(O)cc1` [HPPDA, (2E,4E)-5-(4-hydroxyphenyl)penta-2,4-dienoic acid], the “H2O2 concentration lowered by” value amounted to 40 µM. With `O=C1O[C@H]([C@@H](O)CO)C(O)=C1O` [ascorbic acid], the “H2O2 concentration lowered by” value was 30 µM.
